ChEMBL document CHEMBL1201862, “PubChem BioAssay data set” (2004)
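Protocol summary: plate cells (96-well), add compound at 5 concentrations, incubate 48 h, interpolate endpoints linearly. The concentration for 50% growth inhibition is given as GI50.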 The source made the active and inactive calls. No stated cut-off is given here; in the data, active = GI50 up to about 1.1 µM and inactive = higher.

Experiments:
Assay in all cases: DTP human tumour cell line panel, 48 h
[1] = system: 786-0
[2] = system: HOP-62
[3] = system: HT-29
[4] = system: KM12
[5] = system: M14
[6] = system: MOLT-4
[7] = system: NCI-H23
[8] = system: OVCAR-4
[9] = system: RPMI-8226
[10] = system: SF-268
[11] = system: SF-295
[12] = system: SF-539
[13] = system: SK-OV-3
[14] = system: OVCAR-8
[15] = system: SN12C
[16] = system: SNB-75

Measured: GI50

CCC1C(=O)OCc2c1cc1n(c2=O)C(CC)c2c-1nc1ccccc1c2Cl (centres undefined)
inactive: [1] 15.7 µM | [2] 20.7 µM | [3] 24.1 µM | [4] 24.6 µM | [5] 33.7 µM | [6] 10.4 µM | [7] 25.6 µM | [8] 22.4 µM | [9] 13.2 µM | [10] 23.9 µM | [11] 23.4 µM | [12] 17.3 µM | [13] 33.9 µM

CCOc1ccc(NC(=O)CC2SC(N)=NC2=O)cc1 (centres undefined)
inactive: [1] > 100 µM | [2] > 100 µM | [3] > 100 µM | [4] > 100 µM | [5] > 100 µM | [6] > 100 µM | [7] > 100 µM | [8] > 100 µM | [14] > 100 µM | [9] > 100 µM | [10] > 100 µM | [11] > 100 µM | [15] > 100 µM | [16] > 100 µM

COc1ccc(OC(C(=O)O)C(C)C)c2c1CCCC2=O (centres undefined)
inactive: [1] > 100 µM | [2] > 100 µM | [3] > 100 µM | [4] > 100 µM | [5] > 100 µM | [6] > 100 µM | [7] > 100 µM | [8] > 100 µM | [14] > 100 µM | [9] > 100 µM | [10] > 100 µM | [11] > 100 µM | [12] > 100 µM | [13] > 100 µM | [15] > 100 µM

CN(Cc1ccccc1)C(=NC#N)N(C)Cc1ccccc1
inactive: [1] > 100 µM | [2] > 100 µM | [3] > 100 µM | [4] > 100 µM | [5] > 100 µM | [7] > 100 µM | [8] > 100 µM | [14] > 100 µM | [10] > 100 µM | [11] > 100 µM | [12] > 100 µM | [13] > 100 µM | [15] > 100 µM

CCOC(=O)C1=C(N)N(c2ccccc2)/C(=C(/C#N)c2nc3ccccc3[nH]2)S1
inactive: [1] > 100 µM | [2] > 100 µM | [3] > 100 µM | [5] > 100 µM | [6] > 100 µM | [7] > 100 µM | [8] > 100 µM | [14] > 100 µM | [10] 80.9 µM | [11] > 100 µM | [12] > 100 µM | [13] > 100 µM | [15] > 100 µM | [16] > 100 µM
